Experimental findings from ChEMBL document CHEMBL1133138, “Substituted 2-aminopyridines as inhibitors of nitric oxide synthases” (Bioorg Med Chem Lett, 2000) are described below.

The target in test [1] is Nitric oxide synthase, inducible (Homo sapiens, UniProt P35228).
Description: Inhibitory activity against inducible nitric oxide synthase (iNOS)
For test [2], the target named is T1, Nitric oxide synthase 1 (Homo sapiens, UniProt P29475).
Description: Inhibitory activity against neuronal nitric oxide synthase
The next test has as its target T2, Nitric oxide synthase 3 (Homo sapiens, UniProt P29474).
T2 sequence (P29474 whole entry): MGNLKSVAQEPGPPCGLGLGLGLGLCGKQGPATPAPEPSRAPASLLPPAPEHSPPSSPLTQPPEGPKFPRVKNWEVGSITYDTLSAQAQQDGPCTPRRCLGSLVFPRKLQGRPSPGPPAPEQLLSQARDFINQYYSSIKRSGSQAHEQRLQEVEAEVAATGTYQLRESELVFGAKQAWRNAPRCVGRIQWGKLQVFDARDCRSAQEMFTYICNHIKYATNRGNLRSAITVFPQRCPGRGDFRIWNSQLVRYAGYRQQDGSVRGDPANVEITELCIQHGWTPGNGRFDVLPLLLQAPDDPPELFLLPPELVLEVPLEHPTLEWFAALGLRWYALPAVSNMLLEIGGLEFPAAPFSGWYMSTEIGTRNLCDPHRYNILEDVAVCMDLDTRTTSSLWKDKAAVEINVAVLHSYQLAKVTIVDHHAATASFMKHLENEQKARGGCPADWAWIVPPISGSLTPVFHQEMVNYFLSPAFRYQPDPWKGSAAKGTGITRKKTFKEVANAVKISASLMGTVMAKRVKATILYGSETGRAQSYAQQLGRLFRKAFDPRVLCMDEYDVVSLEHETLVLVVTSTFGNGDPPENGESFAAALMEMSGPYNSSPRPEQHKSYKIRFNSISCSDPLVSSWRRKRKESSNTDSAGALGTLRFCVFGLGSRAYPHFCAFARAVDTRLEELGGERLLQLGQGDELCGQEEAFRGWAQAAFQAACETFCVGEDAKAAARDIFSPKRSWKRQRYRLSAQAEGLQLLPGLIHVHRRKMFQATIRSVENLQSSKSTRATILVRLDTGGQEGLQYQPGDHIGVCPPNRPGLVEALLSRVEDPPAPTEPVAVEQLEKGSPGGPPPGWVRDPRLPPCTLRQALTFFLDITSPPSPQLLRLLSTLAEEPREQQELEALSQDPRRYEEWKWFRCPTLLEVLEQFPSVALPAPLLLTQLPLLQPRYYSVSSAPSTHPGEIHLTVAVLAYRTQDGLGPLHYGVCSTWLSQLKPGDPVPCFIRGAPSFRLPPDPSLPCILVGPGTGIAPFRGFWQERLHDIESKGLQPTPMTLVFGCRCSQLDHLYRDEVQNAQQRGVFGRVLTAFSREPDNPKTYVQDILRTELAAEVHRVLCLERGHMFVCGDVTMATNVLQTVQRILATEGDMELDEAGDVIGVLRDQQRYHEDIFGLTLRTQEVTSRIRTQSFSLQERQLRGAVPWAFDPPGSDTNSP

The target of test [3] is T1, Nitric oxide synthase 1. In words: Inhibitory activity against Neuronal nitric oxide synthase. The note with it: concentration not given here.
The target in test [4] is T3, Nitric oxide synthase 3 (Homo sapiens) (UniProt P29474).
T3 sequence (whole entry): T2 sequence (P29474 whole entry)
In words: Inhibitory activity against Endothelial nitric oxide synthase. To be noted: concentration not given here.

Another test relates to Mus musculus. In words: Compound was evaluated for LPS induced nitric oxide increase in mouse plasma after peroral administration of the compound. To be noted: po. It counts as functional.
Test [5] has as its system Rattus norvegicus. In words: Dose required to increase mean aterial blood pressure (MAP) by 40 mm versus control after intravenous administration in rat. The test is classed as functional.
The test system of test [6] is Rattus norvegicus. In words: Dose required to increase mean aterial blood pressure (MAP) by 40 mm versus control after intravenous administration in rats. The test is classed as functional.

Sequence of Nitric oxide synthase, inducible (P35228 whole entry): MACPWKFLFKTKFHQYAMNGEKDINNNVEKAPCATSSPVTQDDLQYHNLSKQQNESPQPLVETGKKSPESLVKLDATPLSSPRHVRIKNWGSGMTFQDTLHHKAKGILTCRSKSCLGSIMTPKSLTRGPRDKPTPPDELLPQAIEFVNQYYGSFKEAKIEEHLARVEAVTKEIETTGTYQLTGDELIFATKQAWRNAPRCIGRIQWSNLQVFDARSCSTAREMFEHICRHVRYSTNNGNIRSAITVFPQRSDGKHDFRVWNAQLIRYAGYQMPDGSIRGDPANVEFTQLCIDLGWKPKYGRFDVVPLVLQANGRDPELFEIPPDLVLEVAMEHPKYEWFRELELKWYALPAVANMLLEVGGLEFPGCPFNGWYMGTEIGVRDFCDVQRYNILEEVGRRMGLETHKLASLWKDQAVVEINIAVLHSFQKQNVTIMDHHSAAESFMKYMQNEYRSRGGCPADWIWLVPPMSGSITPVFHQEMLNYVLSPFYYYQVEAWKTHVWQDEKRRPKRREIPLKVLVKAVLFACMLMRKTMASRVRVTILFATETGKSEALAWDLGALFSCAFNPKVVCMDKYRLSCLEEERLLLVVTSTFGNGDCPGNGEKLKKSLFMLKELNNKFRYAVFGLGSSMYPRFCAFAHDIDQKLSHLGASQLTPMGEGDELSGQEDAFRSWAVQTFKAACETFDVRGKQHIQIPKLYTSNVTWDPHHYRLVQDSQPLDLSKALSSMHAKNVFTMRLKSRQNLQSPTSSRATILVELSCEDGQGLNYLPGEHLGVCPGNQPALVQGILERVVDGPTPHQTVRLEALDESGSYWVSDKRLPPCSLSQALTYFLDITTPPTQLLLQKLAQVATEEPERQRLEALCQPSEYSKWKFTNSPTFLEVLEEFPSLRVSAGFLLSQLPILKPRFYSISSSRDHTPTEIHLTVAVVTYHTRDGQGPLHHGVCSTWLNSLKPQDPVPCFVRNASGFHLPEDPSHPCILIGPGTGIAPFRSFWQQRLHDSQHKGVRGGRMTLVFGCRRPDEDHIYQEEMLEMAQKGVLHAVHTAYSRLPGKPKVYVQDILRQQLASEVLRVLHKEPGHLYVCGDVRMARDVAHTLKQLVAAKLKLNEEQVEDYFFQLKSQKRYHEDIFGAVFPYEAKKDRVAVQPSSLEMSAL
T1 sequence (P29475 whole entry): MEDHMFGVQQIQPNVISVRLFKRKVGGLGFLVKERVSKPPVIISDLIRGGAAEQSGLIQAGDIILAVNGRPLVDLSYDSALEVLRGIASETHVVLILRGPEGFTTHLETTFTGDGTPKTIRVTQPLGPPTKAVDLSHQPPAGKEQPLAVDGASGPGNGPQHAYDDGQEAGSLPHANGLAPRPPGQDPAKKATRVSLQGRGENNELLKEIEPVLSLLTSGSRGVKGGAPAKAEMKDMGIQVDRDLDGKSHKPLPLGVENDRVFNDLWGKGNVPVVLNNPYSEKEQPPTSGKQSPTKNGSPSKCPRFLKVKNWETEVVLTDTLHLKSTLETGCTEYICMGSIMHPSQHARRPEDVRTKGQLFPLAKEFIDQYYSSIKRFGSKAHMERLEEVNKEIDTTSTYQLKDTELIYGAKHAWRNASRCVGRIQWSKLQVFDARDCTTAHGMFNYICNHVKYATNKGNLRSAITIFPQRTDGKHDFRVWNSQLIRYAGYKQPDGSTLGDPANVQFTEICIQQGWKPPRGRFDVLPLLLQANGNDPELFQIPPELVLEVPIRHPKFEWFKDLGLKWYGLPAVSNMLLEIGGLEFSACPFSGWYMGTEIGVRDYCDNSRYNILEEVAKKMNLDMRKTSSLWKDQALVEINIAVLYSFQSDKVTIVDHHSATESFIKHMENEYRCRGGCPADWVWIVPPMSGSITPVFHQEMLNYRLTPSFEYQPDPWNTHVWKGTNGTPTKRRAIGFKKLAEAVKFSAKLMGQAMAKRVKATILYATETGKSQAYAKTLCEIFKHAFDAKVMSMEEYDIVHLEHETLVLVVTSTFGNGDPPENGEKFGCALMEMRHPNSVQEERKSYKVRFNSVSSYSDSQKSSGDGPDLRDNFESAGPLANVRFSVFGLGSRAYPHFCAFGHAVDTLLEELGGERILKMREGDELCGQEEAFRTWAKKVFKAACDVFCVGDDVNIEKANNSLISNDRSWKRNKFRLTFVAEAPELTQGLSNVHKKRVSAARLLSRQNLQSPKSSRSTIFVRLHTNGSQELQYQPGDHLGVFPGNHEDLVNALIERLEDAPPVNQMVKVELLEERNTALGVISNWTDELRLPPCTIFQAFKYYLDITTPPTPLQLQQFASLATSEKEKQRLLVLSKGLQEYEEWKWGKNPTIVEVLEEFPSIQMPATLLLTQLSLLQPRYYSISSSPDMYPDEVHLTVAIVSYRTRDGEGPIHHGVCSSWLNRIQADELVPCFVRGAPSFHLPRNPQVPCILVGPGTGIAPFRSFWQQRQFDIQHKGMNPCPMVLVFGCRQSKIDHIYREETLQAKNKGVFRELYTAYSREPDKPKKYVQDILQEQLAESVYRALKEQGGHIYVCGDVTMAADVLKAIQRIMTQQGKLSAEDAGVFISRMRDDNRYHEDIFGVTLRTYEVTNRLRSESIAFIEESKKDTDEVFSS

For orientation: IC50 means the concentration at which inhibition is half-maximal. Low readings indicate higher potency, high ones lower potency. `Cc1ccc(N)nc1`: the IC50 in test [1] amounted to 0.6 µM.
`Cc1cccnc1N`: the IC50 stood at 0.94 µM in test [1] and 1.3 µM on Nitric oxide synthase 1 [2].
Regarding `Cc1cc(N)nc(CC(C)C)c1`, the IC50 against Nitric oxide synthase 3 turned out to be 0.15 µM; in test [1] it was 0.028 µM; against Nitric oxide synthase 1 [2] it was 0.1 µM.
Usually inhibition stands for how much of the control response was suppressed. Read a low inhibition as a response near the control. For the compound `CCc1cc(C)cc(N)n1`, the inhibition against Nitric oxide synthase 1 [3] amounted to 42%. The IC50 against Nitric oxide synthase 3 stood at 0.049 µM; in test [1] it was 0.33 µM.
Regarding `Nc1cc2ccccc2cn1` [ISOQUINOLIN-3-AMINE], the IC50 in test [1] was more than 50 µM.
Still for that read-out and setting: in the case of `Cc1ccnc(N)c1N` it was 0.059 µM.
`Nc1cc2c(cn1)CCCC2`: the results for the IC50 (on Nitric oxide synthase 3; in test [1]; at Nitric oxide synthase 1 [2]) were 16.6 µM, 4.1 µM and 10.6 µM, respectively.
On to `Cc1ccnc(N)c1C`, for which half-maximal inhibition at Nitric oxide synthase 3 (IC50) required 0.15 µM.
Take `CCc1c(C)ccnc1N`: the IC50 against Nitric oxide synthase 3 was found to be 3.3 µM; in test [1], 2.7 µM.
Regarding `Cc1cc(N)nc(CCC(C)C)c1`, the IC50 on Nitric oxide synthase 3 amounted to 1.9 µM; in test [1] it was 0.076 µM; on Nitric oxide synthase 1 [2] it was 0.51 µM.
Turning to `CCCCc1cc(C)cc(N)n1`, the inhibition was found to be 40% in test [4] and 59% against Nitric oxide synthase 1 [3]. In test [1], this compound returned an IC50 of 0.046 µM.
As for `Nc1ccc2c(n1)CCC2`, the IC50 (on Nitric oxide synthase 3; in test [1]; against Nitric oxide synthase 1 [2]) was more than 50 µM throughout.
For the compound `Cc1cc(N)nc2c1CCCC2`, the IC50 on Nitric oxide synthase 3 amounted to 19.8 µM; in test [1] it was 4 µM; against Nitric oxide synthase 1 [2], 2.4 µM.
Consider `Nc1cc(Cl)ccn1`, for which the IC50 in test [1] was more than 50 µM.
In test [1], `CCCc1ccnc(N)c1` yielded an IC50 of more than 50 µM.
Consider `CCc1cnc(N)cc1C`, for which the IC50 at Nitric oxide synthase 3 was 3.4 µM; in test [1], 1.3 µM; on Nitric oxide synthase 1 [2] it was 0.61 µM.
As to `Cc1cc(N)nc(CCCc2ccccc2)c1`, the IC50 was 17.2 µM against Nitric oxide synthase 3, 12.7 µM in test [1] and 3.3 µM on Nitric oxide synthase 1 [2].
For `N=C(N)NN` [PIMAGEDINE], the IC50 is 500 µM against Nitric oxide synthase 3, 101 µM in test [1] and 118 µM on Nitric oxide synthase 1 [2].
For `Cc1cnc(N)c(C)c1`, the IC50 against Nitric oxide synthase 3 was 3.6 µM; in test [1], 14.6 µM; against Nitric oxide synthase 1 [2], 2 µM.
One may read the ED50 as the midpoint of the dose-response relation. `CC1CCN=C(N)C1` (stereo not drawn) returned an ED50 with Mus musculus of 0.15 mg/kg. This compound also showed an HD50 in the test on Rattus norvegicus [5] of 1.8 mg/kg. Also, the IC50 in test [1] is 0.016 µM.
In the case of `Nc1ccccn1` [2-AMINOPYRIDINE], the values for the 50% inhibitory concentration (IC50) (at Nitric oxide synthase 3; in test [1]) were 2.8 µM and 1.9 µM, respectively.
For `Cc1cnc(N)cc1C`, the IC50 on Nitric oxide synthase 3 was 0.6 µM; in test [1] it was 0.81 µM; at Nitric oxide synthase 1 [2], 0.34 µM.
Consider `Cc1ccnc(N)c1`, for which, in the test on Mus musculus, the 50% effect level (ED50) was put at a dose of 25 mg/kg. Besides, in the test with Rattus norvegicus [6], the HD40 stood at 0.11 mg/kg.
`Cc1ccc(N)nc1C`: the IC50 at Nitric oxide synthase 3 was found to be 2.8 µM; in test [1], 7.2 µM; at Nitric oxide synthase 1 [2], 2.2 µM.
On to `Cc1cc(N)nc(C(C)C)c1`, for which the IC50 was 0.2 µM on Nitric oxide synthase 3, 0.11 µM in test [1] and 1.2 µM against Nitric oxide synthase 1 [2].
Regarding `CCCc1c(C)ccnc1N`, the IC50 in test [1] is 34.5 µM.
For `Cc1cc(C)nc(N)c1`, the IC50 at Nitric oxide synthase 3 is 0.045 µM; in test [1], 0.11 µM.
Turning to `Nc1nccc2c1CCCC2`, the IC50 on Nitric oxide synthase 3 was 24 µM; in test [1], 29 µM; on Nitric oxide synthase 1 [2], 11 µM.
For `CC(=N)NCCCC[C@H](N)C(=O)O` [L-NIL], the results for the IC50 (against Nitric oxide synthase 3; in test [1]; against Nitric oxide synthase 1 [2]) were 7.9 µM, 1.4 µM and 18.4 µM, respectively.
